# According to patent US8952024B2, “Herbicidal pyrimidone derivatives” (E I du Pont de Nemours and Company, priority 2009, dated 2015):
# Legend:
# Format in all cases: in vivo
# rice (Oryza sativa) = assay: Test B flooded paddy test; conditions: for Plant response rating, Flood, Rice: 250 g ai/ha, flooded paddy test, visual rating on 0 to 100 scale (0 no effect, 100 complete control) after 13 to 15 days; for Plant response rating, Rice: Flood (flooded paddy test), 13 to 15 days; for Rice plant response rating: Flood, 31 g ai/ha, scale 0 to 100 (0 no effect, 100 complete control)
# Summary of the method: (§1)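 2-leaf seedlings; pots flooded 3 cm over soil at treatment; cpd dosed into floodwater, depth kept constant. Greenhouse 13–15 d. Visual rating vs untreated controls, 0 = no effect, 100 = complete control.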
# [1] = test system: ducksalad (Heteranthera limosa); assay: Test B flooded paddy test; conditions: for Plant response rating, Flood, Ducksalad: 250 g ai/ha, flooded paddy test, visual rating on 0 to 100 scale (0 no effect, 100 complete control) after 13 to 15 days; for Plant response rating, Ducksalad: Flood (flooded paddy test), 13 to 15 days; for Ducksalad plant response rating: Flood, 31 g ai/ha, scale 0 to 100 (0 no effect, 100 complete control)
# Summary of the method: as §1
# [2] = test system: umbrella sedge (Cyperus difformis); assay: Test B flooded paddy test; conditions: for Plant response rating, Flood, Sedge, Umbrella: 250 g ai/ha, flooded paddy test, visual rating on 0 to 100 scale (0 no effect, 100 complete control) after 13 to 15 days; for Plant response rating, Sedge, Umbrella: Flood (flooded paddy test), 13 to 15 days; for Sedge, Umbrella plant response rating: Flood, 31 g ai/ha, scale 0 to 100 (0 no effect, 100 complete control)
# Summary of the method: as §1
# [3] = test system: barnyardgrass (Echinochloa crus-galli); assay: Test B flooded paddy test; conditions: for Plant response rating, Flood, Barnyardgrass: 250 g ai/ha, flooded paddy test, visual rating on 0 to 100 scale (0 no effect, 100 complete control) after 13 to 15 days; for Plant response rating, Barnyardgrass: Flood (flooded paddy test), 13 to 15 days; for Barnyardgrass plant response rating: Flood, 31 g ai/ha, scale 0 to 100 (0 no effect, 100 complete control)
# Summary of the method: as §1
# [4] = test system: large crabgrass (Digitaria sanguinalis); assay: Test A pre-/postemergence plant response; conditions: for Crabgrass, Large plant response rating: visual injury, 0 to 100 scale (0 no effect, 100 complete control), approx. ten days
# Summary of the method: (§2)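 Approximately ten days after concurrent pre- and postemergence spraying in a greenhouse, plants were compared with untreated controls and rated visually for injury, 0 = no effect to 100 = complete control. Preemergence spray was directed onto loam/sand soil; postemergence targeted 1–2 leaf seedlings.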
# [5] = test system: pigweed (Amaranthus retroflexus); assay: Test A pre-/postemergence plant response; conditions: for Pigweed plant response rating: visual injury, 0 to 100 scale (0 no effect, 100 complete control), approx. ten days
# Summary of the method: as §2
# [6] = test system: morningglory (Ipomoea spp.); assay: Test A pre-/postemergence plant response; conditions: for Morningglory plant response rating: visual injury, 0 to 100 scale (0 no effect, 100 complete control), approx. ten days
# Summary of the method: as §2
# corn (Zea mays) = assay: Test A pre-/postemergence plant response; conditions: for Corn plant response rating: visual injury, 0 to 100 scale (0 no effect, 100 complete control), approx. ten days
# Summary of the method: as §2
# [7] = test system: giant foxtail (Setaria faberii); assay: Test A pre-/postemergence plant response; conditions: for Foxtail, Giant plant response rating: visual injury, 0 to 100 scale (0 no effect, 100 complete control), approx. ten days
# Summary of the method: as §2
# [8] = test system: wheat (Triticum aestivum); assay: Test A pre-/postemergence plant response; conditions: for Wheat plant response rating: visual injury, 0 to 100 scale (0 no effect, 100 complete control), approx. ten days
# Summary of the method: as §2
# [9] = test system: barnyardgrass (Echinochloa crus-galli); assay: Test A pre-/postemergence plant response; conditions: for Barnyardgrass plant response rating: visual injury, 0 to 100 scale (0 no effect, 100 complete control), approx. ten days
# Summary of the method: as §2
# [10] = test system: velvetleaf (Abutilon theophrasti); assay: Test A pre-/postemergence plant response; conditions: for Velvetleaf plant response rating: visual injury, 0 to 100 scale (0 no effect, 100 complete control), approx. ten days
# Summary of the method: as §2
# [11] = 62 g ai/ha, scale of 0 to 100 where 0 is no effect and 100 is complete control
# [12] = 125 g ai/ha, scale 0 to 100, 0 is no effect, 100 is complete control
# [13] = Postemergence, 125 g ai/ha, 0 to 100 scale where 0 is no effect and 100 is complete control
# [14] = Preemergence, 125 g ai/ha, 0 to 100 scale, 0 = no effect, 100 = complete control
# [15] = Preemergence, 500 g ai/ha, 0 to 100 scale, 0 = no effect, 100 = complete control
structure (smiles),measurement,setting,value
O=C1CCCC(O)=C1C(=O)c1cnc(-c2cccc(F)c2)n(CCC(F)(F)F)c1=O [Compound 208],"Plant response rating, Flood, Rice",rice (Oryza sativa),0
same,"Plant response rating, Rice",rice (Oryza sativa); [11],0
same,"Plant response rating, Rice",rice (Oryza sativa); [12],0
same,Rice plant response rating,rice (Oryza sativa),0
same,"Plant response rating, Flood, Ducksalad",[1],75
same,"Plant response rating, Ducksalad",[1]; [11],30
same,"Plant response rating, Ducksalad",[1]; [12],40
same,Ducksalad plant response rating,[1],0
same,"Plant response rating, Flood, Sedge, Umbrella",[2],70
same,"Plant response rating, Sedge, Umbrella",[2]; [11],40
same,"Plant response rating, Sedge, Umbrella",[2]; [12],40
same,"Sedge, Umbrella plant response rating",[2],0
same,"Plant response rating, Flood, Barnyardgrass",[3],25
same,"Plant response rating, Barnyardgrass",[3]; [11],0
same,"Plant response rating, Barnyardgrass",[3]; [12],15
same,Barnyardgrass plant response rating,[3],0
same,"Plant response rating, Crabgrass, Large",[4]; [13],30
same,"Crabgrass, Large plant response rating","[4]; Postemergence, 500 g ai/ha",80
same,"Plant response rating, Crabgrass, Large",[4]; [14],80
same,"Plant response rating, Crabgrass, Large",[4]; [15],100
same,"Plant response rating, Pigweed",[5]; [13],80
same,Pigweed plant response rating,"[5]; Postemergence, 500 g ai/ha",90
same,"Plant response rating, Pigweed",[5]; [14],60
same,"Plant response rating, Pigweed",[5]; [15],100
same,"Plant response rating, Morningglory",[6]; [13],50
same,Morningglory plant response rating,"[6]; Postemergence, 500 g ai/ha",100
same,"Plant response rating, Morningglory",[6]; [14],0
same,"Plant response rating, Morningglory",[6]; [15],70
same,"Plant response rating, Corn",corn (Zea mays); [13],0
same,Corn plant response rating,"corn (Zea mays); Postemergence, 500 g ai/ha",20
same,"Plant response rating, Corn",corn (Zea mays); [14],0
same,"Plant response rating, Corn",corn (Zea mays); [15],20
same,"Plant response rating, Foxtail, Giant",[7]; [13],30
same,"Foxtail, Giant plant response rating","[7]; Postemergence, 500 g ai/ha",80
same,"Plant response rating, Foxtail, Giant",[7]; [14],40
same,"Plant response rating, Foxtail, Giant",[7]; [15],70
same,"Plant response rating, Wheat",[8]; [13],0
same,Wheat plant response rating,"[8]; Postemergence, 500 g ai/ha",10
same,"Plant response rating, Wheat",[8]; [14],0
same,"Plant response rating, Wheat",[8]; [15],20
same,"Plant response rating, Barnyardgrass",[9]; [13],30
same,Barnyardgrass plant response rating,"[9]; Postemergence, 500 g ai/ha",90
same,"Plant response rating, Barnyardgrass",[9]; [14],10
same,"Plant response rating, Barnyardgrass",[9]; [15],80
same,"Plant response rating, Velvetleaf",[10]; [13],100
same,Velvetleaf plant response rating,"[10]; Postemergence, 500 g ai/ha",100
same,"Plant response rating, Velvetleaf",[10]; [14],60
same,"Plant response rating, Velvetleaf",[10]; [15],90
Cc1cccc(-c2ncc(C(=O)C3=C(O)CCCC3=O)c(=O)n2-c2ccccc2C)c1 [Compound 210],"Plant response rating, Flood, Rice",rice (Oryza sativa),25
same,"Plant response rating, Rice",rice (Oryza sativa); [11],0
same,"Plant response rating, Rice",rice (Oryza sativa); [12],20
same,Rice plant response rating,rice (Oryza sativa),0
same,"Plant response rating, Flood, Ducksalad",[1],90
same,"Plant response rating, Ducksalad",[1]; [11],85
same,"Plant response rating, Ducksalad",[1]; [12],90
same,Ducksalad plant response rating,[1],75
same,"Plant response rating, Flood, Sedge, Umbrella",[2],80
same,"Plant response rating, Sedge, Umbrella",[2]; [11],75
same,"Plant response rating, Sedge, Umbrella",[2]; [12],75
same,"Sedge, Umbrella plant response rating",[2],50
same,"Plant response rating, Flood, Barnyardgrass",[3],40
same,"Plant response rating, Barnyardgrass",[3]; [11],0
same,"Plant response rating, Barnyardgrass",[3]; [12],20
same,Barnyardgrass plant response rating,[3],0
same,"Plant response rating, Crabgrass, Large",[4]; [13],10
same,"Crabgrass, Large plant response rating","[4]; Postemergence, 500 g ai/ha",30
same,"Plant response rating, Crabgrass, Large",[4]; [14],10
same,"Plant response rating, Crabgrass, Large",[4]; [15],50
same,"Plant response rating, Pigweed",[5]; [13],90
same,Pigweed plant response rating,"[5]; Postemergence, 500 g ai/ha",100
same,"Plant response rating, Pigweed",[5]; [14],60
same,"Plant response rating, Pigweed",[5]; [15],100
same,"Plant response rating, Morningglory",[6]; [13],50
same,Morningglory plant response rating,"[6]; Postemergence, 500 g ai/ha",100
same,"Plant response rating, Morningglory",[6]; [14],0
same,"Plant response rating, Morningglory",[6]; [15],50
same,"Plant response rating, Corn",corn (Zea mays); [13],0
same,Corn plant response rating,"corn (Zea mays); Postemergence, 500 g ai/ha",0
same,"Plant response rating, Corn",corn (Zea mays); [14],0
same,"Plant response rating, Corn",corn (Zea mays); [15],0
same,"Plant response rating, Foxtail, Giant",[7]; [13],10
same,"Foxtail, Giant plant response rating","[7]; Postemergence, 500 g ai/ha",70
same,"Plant response rating, Foxtail, Giant",[7]; [14],20
same,"Plant response rating, Foxtail, Giant",[7]; [15],90
same,"Plant response rating, Wheat",[8]; [13],0
same,Wheat plant response rating,"[8]; Postemergence, 500 g ai/ha",10
same,"Plant response rating, Wheat",[8]; [14],0
same,"Plant response rating, Wheat",[8]; [15],0
same,"Plant response rating, Barnyardgrass",[9]; [13],40
same,Barnyardgrass plant response rating,"[9]; Postemergence, 500 g ai/ha",90
same,"Plant response rating, Barnyardgrass",[9]; [14],10
same,"Plant response rating, Barnyardgrass",[9]; [15],70
same,"Plant response rating, Velvetleaf",[10]; [13],70
same,Velvetleaf plant response rating,"[10]; Postemergence, 500 g ai/ha",70
same,"Plant response rating, Velvetleaf",[10]; [14],40
same,"Plant response rating, Velvetleaf",[10]; [15],60
